Test results taken from patent publication US10189798B2, “Antimicrobial compounds, methods of making the same and articles comprising them” (MEDICAL TECHNOLOGY RESEARCH INC, priority 2014, dated 2019).

Experiments:
[1] = tested on: Staphylococcus aureus ATCC6538; assay: Zone of inhibition (ZOI) assay; format: cell-based; conditions: for antimicrobial activity, qualitative: ZOI assay, S. aureus ATCC6538
Experimental: The antimicrobial activity of the antimicrobial silver s-triazine compounds was verified by standard zone of inhibition (ZOI) assay known to those skilled in the art. Briefly, in this assay, samples were placed on plates with proprietary agar formula (similar to Mueller Hinton Agar (MHA)) that were inoculated with bacteria and incubated at 37° C. overnight. If antimicrobial activity in the sample was present, it formed a clear zone around the edges. As negative control, the samples without the silver active compound were used. For primary screening of antimicrobial activity, the gram positive bacteria Staphylococcus aureus ATCC6538 was employed in the assay. To examine broad spectrum antimicrobial activity, various different types of organisms including gram negative Pseudomonas aeruginosa ATCC9027, Methicillin-Resistance Staphylococcus aureus (MRSA) and Vancomycin-Resistant Enterococci (VRE) could be employed. In investigating the broad spectrum activity, the ZOI assay is performed slightly differently. Instead of laying the samples on plates individually inoculated with different types of bacteria, the bacterial inoculums are streaked as parallel lines on one plate. After streaking the inoculum linearly, the samples are deposited as a continuous bead string in perpendicular direction to the streak lines. Evidence of antimicrobial activity in the sample is seen in the form of interruptions on both sides of the edges of the sample string.

[2] = Discoloration on direct sunlight exposure; format: physicochemical; conditions: for direct sunlight exposure withstood before any sign of discoloration: undiluted aqueous suspension, ~5500 ppm silver
Experimental: Silver-PDT powder (˜0.027 g) was transferred to the gel and hand-mixed to uniformity with a spatula to obtain clear to hazy gel. […] For DMCA, the tube was kept at ˜25° C. overnight for reaction completion. […] Considering that the amount of silver in the undiluted suspensions was ˜5500 ppm, the discoloration resistance can be considered extraordinary. In contrast, the undiluted suspension of Ag-PDT withstood 0.5 h of sunlight exposure before discoloration was visible. […] A suspension of Ag-MIC was prepared according to Example 13. […] A 2″×2″ piece of cotton gauze was soaked in the clear solution, blotted with paper towel to remove excess and dried at 55° C. for 0.25 to 0.5 h. In the same clear solution prepared separately, a filter paper strip was immersed, shaken and then dried at 55° C. for 0.25 h-0.5 h. Both substrates with silver-MIC were exposed to direct sunlight. […] Thus, in both instances following substrate impregnation, Ag-MIC still maintained robust light discoloration resistance. […] On a clean glass slide, a small volume (˜0.25 ml) was spread with a transfer pipet and left in an oven at 55° C. to dry for 0.5 h. The theoretical amount of silver in the dried coating was estimated at ˜2700 ppm. […] Such coating composition could be useful in providing antimicrobial surfaces. […] Similar sized piece of each dressing was pouched in foil and steam sterilized. After cooling to room temperature the samples were examined for discoloration. None was observed. […] Even after 4 h of direct sunlight exposure, no discoloration of the Ag-PDT impregnated paper was observed. The approximate theoretical amount of silver in the impregnated paper strip was ˜8700 ppm.

[3] = Discoloration on heat exposure (55° C. / steam sterilization); format: physicochemical; conditions: 550 ppm silver
Experimental: The sterilization of any samples (devices or compositions) comprising antimicrobial silver s-triazine compounds was carried out by steam sterilization. By subjecting test samples to steam sterilization, one can ascertain the ability of the antimicrobial silver s-triazine compounds to withstand thermal stresses. […] Thus, the test samples experienced nearly 3.5 h of hostile temperature condition. […] Silver-PDT powder (˜0.027 g) was transferred to the gel and hand-mixed to uniformity with a spatula to obtain clear to hazy gel. […] Similar sized piece of each dressing was pouched in foil and steam sterilized. After cooling to room temperature the samples were examined for discoloration. None was observed.

[4] = Discoloration on table lamp light exposure; format: physicochemical; conditions: for time without discoloration under table lamp light: clear solution with ammonium hydroxide, ~5000 ppm silver, lamp at 12″
Experimental: Stock solutions (0.1M) of monosodium salts of DMCA, EIC and MIC were prepared. […] To accelerate anion exchange between sodium and silver cations, heating of liquids was carried out in microwave between ˜50° to 55° C. The tube contents were cooled and then to each tube neat ammonium hydroxide (0.1 ml) was added which caused the suspensions to clear for all three compounds. […] The theoretical content of silver in the clear solutions was ˜5000 ppm. To a 100 ml PP cup with stir bar, deionized water was added (13.2 ml).

[5] = water, 25° C.
[6] = Alginate sheet, Example 17, ~4500 ppm silver

Structure (SMILES)	Zone width [1, 6] [mm]	antimicrobial activity, qualitative [1]	gel discoloration in direct sunlight ([2]; carboxymethyl cellulose gel, 550 ppm silver, PP tubes)	discoloration as suspension temperature increased during photo-exposure ([2]; diluted suspension ~1350 ppm silver, temperature ~50° C.)	direct sunlight exposure without discoloration ([2]; impregnated thin paper strip, ~8700 ppm silver) [h]	direct sunlight exposure required before signs of discoloration ([2]; suspension diluted with deionized water, ~1350 ppm silver, PP tube)	direct sunlight exposure withstood before any sign of discoloration [2] [h]	gel discoloration at 55° C. ([3]; carboxymethyl cellulose gel, short term exposure)	Zone width ([1]; Cotton gauze, Example 14) [mm]	Zone width ([1]; Filter paper, Example 14) [mm]	Zone width ([1]; Gel, Example 15, 550 ppm silver) [mm]	direct sunlight exposure without discoloration ([2]; impregnated cotton gauze, Example 14) [h]	direct sunlight exposure after which faint cream color registered ([2]; impregnated filter paper strip, Example 14) [h]	gel discoloration under table lamp light ([4]; Laponite gel, 550 ppm silver, overnight)	time without discoloration under table lamp light [4] [h]	gel change at 55° C. ([3]; Laponite gel, 4 weeks)	aqueous solubility [5] [µg/mL]
O=c1nc(-c2ccccc2)[nH]c(=O)[n-]1.[Ag+] [Ag-PDT]	5.5	strong activity	no discoloration of gel was seen for up to an hour	no discoloration was seen	> 4	over 4 h	0.5	did not show any gel discoloration									
Cn1c(=O)[n-]c(=O)[nH]c1=O.[Ag+] [Ag-MIC]	9.5	strong activity					1.5		5.5	8.0	2.5	> 3	1.5	did not discolor	72	practically unchanged	48
CCn1c(=O)[n-]c(=O)[nH]c1=O.[Ag+] [Ag-EIC]	8.5	strong activity					1.5								96		16.5
